Results published in patent US7968097B2, “Identification of Hla-A2-presented T-cell epitopes derived from the oncofoetal antigen-immature laminin receptor protein and uses thereof” (Immatics Biotechnologies GmbH, priority 2005, dated 2011).

Test system: T cells of CLL patients (Binet A)
Experiment: IL-10-secreting peptide-specific T cells in CLL patients with early disease
Assay type: cell-based, human
Settings: small series of CLL patients with early disease (Binet A); data not shown
Text: The inventors are currently involved with experiments to elucidate more precisely a possible relationship between the occurrence of anti-OFA/iLRP-specific T cells secreting IFN-γ or IL10 and the stage of disease in patients with CLL and multiple myeloma.

Sequence	IL-10-secreting T cells specific for the peptide
ALCNTDSPL (listed as Homo sapiens) [ILR2]	no relevant IL-10-secreting T cells
LLAARAIVAI (listed as Homo sapiens) [ILR1]	no relevant IL-10-secreting T cells
